Experimental data taken from ChEMBL document CHEMBL1201862, “PubChem BioAssay data set” (2004).
Values joined by “and” are separate entries in the source; they are usually repeats but may differ in a detail not shown here. Equal values may be shown once. Where a name gives a salt, the structure may show the parent alone. Active and inactive are the calls of the source.

Legend:
SUMO-activating enzyme = SUMO-activating enzyme (Homo sapiens, UniProt Q9UBT2); assay: SUMOylation inhibitor hit validation, confirmation, SUMOylation inhibitor project, biochemical, AlphaScreen (AID 2018); assay type: functional
Jurkat = assay: antigen receptor-induced NF-kB inhibitors, dose response, Jurkat, luciferase reporter, luminescence, B- and T-cell (AID 489004); assay type: functional, cell-based; details: Homo sapiens;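 further: NF-kB luciferase reporter Jurkat cells stimulated with PMA plus ionomycin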
[1] = molecular target: T1, Alkaline phosphatase, tissue-nonspecific isozyme (Homo sapiens, UniProt P05186); assay: inhibition of tissue-nonspecific alkaline phosphatase – biochemical, dose response (AID 488882); assay type: functional
T1 sequence (P05186 whole entry): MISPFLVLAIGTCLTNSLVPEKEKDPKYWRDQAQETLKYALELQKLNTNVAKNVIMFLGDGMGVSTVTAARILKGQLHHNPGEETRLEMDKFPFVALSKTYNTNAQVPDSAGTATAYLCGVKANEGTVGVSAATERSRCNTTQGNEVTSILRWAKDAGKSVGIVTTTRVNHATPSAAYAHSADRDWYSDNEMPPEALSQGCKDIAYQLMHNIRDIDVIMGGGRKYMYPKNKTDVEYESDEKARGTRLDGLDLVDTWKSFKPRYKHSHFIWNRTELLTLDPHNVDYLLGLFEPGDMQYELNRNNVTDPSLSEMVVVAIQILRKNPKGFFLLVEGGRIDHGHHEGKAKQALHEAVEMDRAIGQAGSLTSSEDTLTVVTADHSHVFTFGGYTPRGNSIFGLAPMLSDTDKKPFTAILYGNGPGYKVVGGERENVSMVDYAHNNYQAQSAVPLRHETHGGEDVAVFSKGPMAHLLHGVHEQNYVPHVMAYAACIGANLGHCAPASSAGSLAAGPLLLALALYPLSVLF

CAAX prenyl protease 1 = CAAX prenyl protease 1 (Saccharomyces cerevisiae S288c, UniProt P47154); assay: Ste24 protease inhibitors, dose response, biochemical, S. cerevisiae, plate reader, cherry-pick (AID 488815)
INS1 = assay: beta cell apoptosis inhibitors, cytokine rescue, dose response, luminescence, retest (AID 449756); assay type: functional, cell-based; details: Rattus norvegicus;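 further: cell death triggered by IL-1 beta plus TNF-alpha plus IFN-gamma mixture; protective hits raise ATP signal compared with cytokine alone wells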
[2] = molecular target: DNA repair protein RAD52 homolog (Homo sapiens, UniProt P43351); assay type: functional, biochemical
Bcl-2-like protein 1 = Bcl-2-like protein 1 (Homo sapiens, UniProt Q07817); assay: BCL-XL inhibitors, dose response, selectivity assay for MCL1 inhibitor project, biochemical, fluorescence polarization, 1536-well (AID 2218)
Chain of Bcl-2-like protein 1 (Q07817 whole entry): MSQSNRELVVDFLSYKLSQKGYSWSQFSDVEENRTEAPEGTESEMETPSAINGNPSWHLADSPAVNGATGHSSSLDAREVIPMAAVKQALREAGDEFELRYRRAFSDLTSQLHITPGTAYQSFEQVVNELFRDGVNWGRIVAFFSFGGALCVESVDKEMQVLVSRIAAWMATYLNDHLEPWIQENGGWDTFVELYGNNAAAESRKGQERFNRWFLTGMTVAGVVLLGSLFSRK

[3] = molecular target: Polyadenylate-binding protein 1 (Homo sapiens, UniProt P11940); assay: PABP1 MLLE–PAM2 binding inhibitor potency, dose response, biochemical, fluorescence polarization, FITC-PAM2 peptide (AID 602259); assay type: functional; details: read-out: IC50_Mean
Caspase-6 = molecular target: T2, Caspase-6 (Homo sapiens, UniProt P55212); assay: human caspase-6 inhibitors, dose response, biochemical, VEID-R110 fluorescence, cherry-pick (AID 720632)
T2 sequence (P55212 whole entry): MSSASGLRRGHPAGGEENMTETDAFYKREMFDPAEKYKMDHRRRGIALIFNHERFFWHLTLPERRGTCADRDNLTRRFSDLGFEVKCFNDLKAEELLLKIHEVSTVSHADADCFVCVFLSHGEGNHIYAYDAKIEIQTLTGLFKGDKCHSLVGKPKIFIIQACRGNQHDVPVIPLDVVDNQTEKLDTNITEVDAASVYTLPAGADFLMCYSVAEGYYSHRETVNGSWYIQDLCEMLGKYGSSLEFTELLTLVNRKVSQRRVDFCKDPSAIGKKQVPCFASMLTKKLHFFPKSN

[4] = molecular target: Dual specificity mitogen-activated protein kinase kinase 1 (Homo sapiens, UniProt Q02750); assay: Navigating the Kinome. Panel member name: MAP2K1; assay type: functional
[5] = molecular target: Protein kinase C zeta type (Homo sapiens, UniProt Q05513); assay type: functional;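 further: measured as one member of a broad kinase profiling panel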
Chain of Protein kinase C zeta type (Q05513 whole entry): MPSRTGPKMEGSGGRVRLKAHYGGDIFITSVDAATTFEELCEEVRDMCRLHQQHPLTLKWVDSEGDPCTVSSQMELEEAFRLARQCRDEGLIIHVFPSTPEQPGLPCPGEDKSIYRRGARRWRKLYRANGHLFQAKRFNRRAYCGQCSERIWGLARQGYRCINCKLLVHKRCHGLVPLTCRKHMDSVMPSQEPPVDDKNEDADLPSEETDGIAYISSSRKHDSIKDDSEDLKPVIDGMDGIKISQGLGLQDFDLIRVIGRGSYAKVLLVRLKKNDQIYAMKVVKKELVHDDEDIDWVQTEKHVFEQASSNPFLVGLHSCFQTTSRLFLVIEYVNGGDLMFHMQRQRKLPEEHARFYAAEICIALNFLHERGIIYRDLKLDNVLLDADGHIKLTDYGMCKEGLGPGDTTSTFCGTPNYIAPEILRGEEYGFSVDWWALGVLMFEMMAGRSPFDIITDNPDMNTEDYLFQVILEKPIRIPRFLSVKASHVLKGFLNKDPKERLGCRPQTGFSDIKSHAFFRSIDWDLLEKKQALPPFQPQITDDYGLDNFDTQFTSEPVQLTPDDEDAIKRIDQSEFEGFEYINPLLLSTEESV

[6] = molecular target: Serine/threonine-protein kinase TBK1 (Homo sapiens, UniProt Q9UHD2); assay: Navigating the Kinome. Panel member name: TBK1; assay type: functional
Chain of Serine/threonine-protein kinase TBK1 (Q9UHD2 whole entry): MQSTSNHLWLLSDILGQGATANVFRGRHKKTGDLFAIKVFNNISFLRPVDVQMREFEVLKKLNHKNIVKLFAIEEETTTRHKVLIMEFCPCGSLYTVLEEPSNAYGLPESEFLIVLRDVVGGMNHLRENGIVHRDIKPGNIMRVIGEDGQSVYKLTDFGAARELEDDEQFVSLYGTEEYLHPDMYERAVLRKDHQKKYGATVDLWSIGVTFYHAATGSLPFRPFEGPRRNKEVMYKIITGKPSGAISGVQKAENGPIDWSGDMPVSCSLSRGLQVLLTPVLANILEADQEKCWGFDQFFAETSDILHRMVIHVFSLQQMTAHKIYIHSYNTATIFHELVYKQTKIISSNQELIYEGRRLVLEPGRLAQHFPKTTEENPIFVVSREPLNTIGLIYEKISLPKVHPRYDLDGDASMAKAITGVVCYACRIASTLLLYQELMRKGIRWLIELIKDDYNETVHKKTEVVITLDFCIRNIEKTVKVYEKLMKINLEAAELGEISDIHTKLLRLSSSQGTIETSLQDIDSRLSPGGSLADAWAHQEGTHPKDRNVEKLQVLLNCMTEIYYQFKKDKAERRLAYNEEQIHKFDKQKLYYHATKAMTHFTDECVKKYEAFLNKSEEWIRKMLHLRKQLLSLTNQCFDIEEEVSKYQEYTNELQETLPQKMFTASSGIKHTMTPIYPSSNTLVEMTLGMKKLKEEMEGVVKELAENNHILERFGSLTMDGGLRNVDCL

[7] = molecular target: Serine/threonine-protein kinase PLK4 (Homo sapiens, UniProt O00444); assay type: functional;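 further: PLK4 measured as one member of a kinome-wide kinase profiling panel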
[8] = molecular target: Proto-oncogene tyrosine-protein kinase receptor Ret (Homo sapiens, UniProt P07949); assay type: functional;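 further: measured within a kinome-wide profiling panel, RET as the panel member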
[9] = molecular target: Tyrosine-protein kinase SYK (Homo sapiens, UniProt P43405); assay type: functional
[10] = molecular target: Death-associated protein kinase 3 (Homo sapiens, UniProt O43293); assay type: functional;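 further: measured as one member of a kinome-wide profiling panel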
[11] = molecular target: Serine/threonine-protein kinase Chk2 (Homo sapiens, UniProt O96017); assay type: functional;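 further: CHEK2 entry within a kinome-wide screening panel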
[12] = molecular target: Calcium/calmodulin-dependent protein kinase type II subunit delta (Homo sapiens, UniProt Q13557); assay type: functional
[13] = molecular target: Tyrosine-protein kinase ITK/TSK (Homo sapiens, UniProt Q08881); assay type: functional;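 further: affinity for ITK measured as one member of a broad kinase panel profiling binding across the kinome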
Chain of Tyrosine-protein kinase ITK/TSK (Q08881 whole entry): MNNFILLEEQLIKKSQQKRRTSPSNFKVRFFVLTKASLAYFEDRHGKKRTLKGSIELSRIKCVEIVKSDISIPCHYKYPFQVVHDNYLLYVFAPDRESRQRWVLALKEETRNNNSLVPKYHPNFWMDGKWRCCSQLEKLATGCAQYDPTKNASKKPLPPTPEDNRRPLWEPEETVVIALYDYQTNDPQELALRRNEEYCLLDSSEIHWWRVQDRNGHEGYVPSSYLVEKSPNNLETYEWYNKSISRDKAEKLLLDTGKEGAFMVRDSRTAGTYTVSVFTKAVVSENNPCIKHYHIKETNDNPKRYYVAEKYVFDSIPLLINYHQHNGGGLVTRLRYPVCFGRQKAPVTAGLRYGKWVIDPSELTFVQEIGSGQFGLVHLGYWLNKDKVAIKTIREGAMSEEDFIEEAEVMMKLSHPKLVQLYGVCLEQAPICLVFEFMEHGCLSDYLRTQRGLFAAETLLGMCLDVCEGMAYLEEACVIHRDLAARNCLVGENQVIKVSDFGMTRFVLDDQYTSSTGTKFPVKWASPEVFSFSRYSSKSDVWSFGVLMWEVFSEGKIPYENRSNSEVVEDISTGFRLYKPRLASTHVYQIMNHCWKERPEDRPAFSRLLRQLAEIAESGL

[14] = molecular target: Testis-specific serine/threonine-protein kinase 1 (Homo sapiens, UniProt Q9BXA7); assay type: functional
[15] = molecular target: High affinity nerve growth factor receptor (Homo sapiens, UniProt P04629); assay type: functional;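 further: NTRK1 tested as one member of a kinome-wide profiling panel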
[16] = molecular target: Proto-oncogene tyrosine-protein kinase Src (Homo sapiens, UniProt P12931); assay type: functional;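 further: SRC entry within a kinome-wide kinase profiling panel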
[17] = molecular target: Tyrosine-protein kinase ABL1 (Homo sapiens, UniProt P00519); assay type: functional
[18] = molecular target: Dual specificity tyrosine-phosphorylation-regulated kinase 1B (Homo sapiens, UniProt Q9Y463); assay: Navigating the Kinome. Panel member name: DYRK1B; assay type: functional
Chain of Dual specificity tyrosine-phosphorylation-regulated kinase 1B (Q9Y463 whole entry): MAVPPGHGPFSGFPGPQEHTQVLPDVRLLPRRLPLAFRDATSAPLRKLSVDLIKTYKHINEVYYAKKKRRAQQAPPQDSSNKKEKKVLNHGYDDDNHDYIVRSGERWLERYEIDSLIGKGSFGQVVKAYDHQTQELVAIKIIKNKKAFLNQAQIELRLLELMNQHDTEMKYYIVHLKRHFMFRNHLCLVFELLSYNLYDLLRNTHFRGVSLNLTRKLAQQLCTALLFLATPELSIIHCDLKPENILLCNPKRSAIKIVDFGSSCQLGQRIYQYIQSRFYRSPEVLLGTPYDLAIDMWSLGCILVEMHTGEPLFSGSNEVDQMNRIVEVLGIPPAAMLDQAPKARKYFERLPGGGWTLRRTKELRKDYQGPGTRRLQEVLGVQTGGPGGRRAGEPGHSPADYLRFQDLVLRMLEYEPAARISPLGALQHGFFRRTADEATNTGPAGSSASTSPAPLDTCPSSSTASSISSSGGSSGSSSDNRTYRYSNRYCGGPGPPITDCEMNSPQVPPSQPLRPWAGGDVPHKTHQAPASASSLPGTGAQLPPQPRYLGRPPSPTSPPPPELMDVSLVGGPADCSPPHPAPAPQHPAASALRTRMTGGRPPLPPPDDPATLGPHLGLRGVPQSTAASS

Focal adhesion kinase 1 = Focal adhesion kinase 1 (Homo sapiens, UniProt Q05397); assay type: functional;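 further: measured as one member of a kinome panel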
[19] = molecular target: Interleukin-1 receptor-associated kinase 1 (Homo sapiens, UniProt P51617); assay type: functional;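 further: IRAK1 tested as one member of a kinome panel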
Chain of Interleukin-1 receptor-associated kinase 1 (P51617 whole entry): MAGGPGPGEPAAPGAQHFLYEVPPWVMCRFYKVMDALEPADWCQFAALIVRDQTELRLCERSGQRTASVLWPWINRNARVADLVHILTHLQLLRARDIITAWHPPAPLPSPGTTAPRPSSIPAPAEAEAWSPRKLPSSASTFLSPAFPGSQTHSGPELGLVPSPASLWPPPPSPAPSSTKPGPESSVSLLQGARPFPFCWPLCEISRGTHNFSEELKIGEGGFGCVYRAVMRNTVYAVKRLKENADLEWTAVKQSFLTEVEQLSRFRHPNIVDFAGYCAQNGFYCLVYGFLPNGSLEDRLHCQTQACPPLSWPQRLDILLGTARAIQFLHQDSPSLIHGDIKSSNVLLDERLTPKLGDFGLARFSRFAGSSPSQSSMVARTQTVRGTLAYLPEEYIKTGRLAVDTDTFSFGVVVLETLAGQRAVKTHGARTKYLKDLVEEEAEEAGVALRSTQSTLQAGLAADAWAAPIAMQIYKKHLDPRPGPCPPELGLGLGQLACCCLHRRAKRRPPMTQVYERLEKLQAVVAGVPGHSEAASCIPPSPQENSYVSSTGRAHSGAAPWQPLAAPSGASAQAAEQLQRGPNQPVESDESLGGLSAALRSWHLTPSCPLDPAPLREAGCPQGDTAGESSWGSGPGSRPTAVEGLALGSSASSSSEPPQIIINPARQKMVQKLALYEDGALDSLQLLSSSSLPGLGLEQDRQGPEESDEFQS

[20] = molecular target: Interleukin-1 receptor-associated kinase 4 (Homo sapiens, UniProt Q9NWZ3); assay type: functional
Chain of Interleukin-1 receptor-associated kinase 4 (Q9NWZ3 whole entry): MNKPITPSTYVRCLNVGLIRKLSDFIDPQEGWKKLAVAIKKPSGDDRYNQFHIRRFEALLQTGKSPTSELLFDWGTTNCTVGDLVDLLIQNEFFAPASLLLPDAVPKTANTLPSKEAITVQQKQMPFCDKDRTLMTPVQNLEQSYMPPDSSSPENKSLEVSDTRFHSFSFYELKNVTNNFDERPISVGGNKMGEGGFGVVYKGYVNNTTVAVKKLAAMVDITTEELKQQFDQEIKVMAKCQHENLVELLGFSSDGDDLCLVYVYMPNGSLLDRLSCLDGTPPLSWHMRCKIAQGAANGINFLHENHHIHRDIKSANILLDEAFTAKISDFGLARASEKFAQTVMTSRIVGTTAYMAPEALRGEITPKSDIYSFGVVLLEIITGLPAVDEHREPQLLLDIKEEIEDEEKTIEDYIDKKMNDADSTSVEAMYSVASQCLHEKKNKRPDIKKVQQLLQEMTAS

[21] = molecular target: Rho-associated protein kinase 1 (Homo sapiens, UniProt Q13464); assay type: functional;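 further: measured within a broad kinome-wide panel profiling many kinases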
[22] = molecular target: Tyrosine-protein kinase Fer (Homo sapiens, UniProt P16591); assay type: functional;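 further: FER tested as one member of a kinome panel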
[23] = molecular target: Calcium/calmodulin-dependent protein kinase type 1 (Homo sapiens, UniProt Q14012); assay type: functional
Chain of Calcium/calmodulin-dependent protein kinase type 1 (Q14012 whole entry): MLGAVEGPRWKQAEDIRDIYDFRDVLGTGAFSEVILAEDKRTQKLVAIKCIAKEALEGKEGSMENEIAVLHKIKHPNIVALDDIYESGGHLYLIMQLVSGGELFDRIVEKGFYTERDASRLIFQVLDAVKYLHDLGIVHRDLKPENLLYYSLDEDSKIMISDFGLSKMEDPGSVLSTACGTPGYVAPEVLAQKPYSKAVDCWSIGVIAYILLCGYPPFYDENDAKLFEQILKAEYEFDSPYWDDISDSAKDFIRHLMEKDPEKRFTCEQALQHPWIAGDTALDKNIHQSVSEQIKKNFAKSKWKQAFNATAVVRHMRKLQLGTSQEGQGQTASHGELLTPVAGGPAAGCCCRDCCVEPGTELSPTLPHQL

[24] = molecular target: Serine/threonine-protein kinase pim-2 (Homo sapiens, UniProt Q9P1W9); assay type: functional;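 further: value comes from a broad kinase panel profiling study in which PIM2 was one of the panel members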
Chain of Serine/threonine-protein kinase pim-2 (Q9P1W9 whole entry): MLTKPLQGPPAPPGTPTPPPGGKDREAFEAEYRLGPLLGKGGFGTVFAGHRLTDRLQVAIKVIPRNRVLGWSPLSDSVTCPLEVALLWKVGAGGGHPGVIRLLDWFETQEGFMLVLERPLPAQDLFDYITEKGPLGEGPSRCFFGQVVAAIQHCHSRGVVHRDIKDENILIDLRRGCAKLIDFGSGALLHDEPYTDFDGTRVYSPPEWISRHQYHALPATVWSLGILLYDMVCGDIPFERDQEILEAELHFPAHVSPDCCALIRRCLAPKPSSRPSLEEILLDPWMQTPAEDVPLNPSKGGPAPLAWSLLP

[25] = molecular target: Serine/threonine-protein kinase Nek2 (Homo sapiens, UniProt P51955); assay type: functional

CCC(C)n1c(NC(=O)c2ccccc2)c(C#N)c2nc3ccccc3nc21 (configuration not stated)
IC50 (SUMO-activating enzyme): 3.51 µM (active)

CCN1/C(=C\c2ccc3ccccc3[n+]2CC)Sc2cc(C)ccc21
IC50 (Jurkat): 15.5 µM (active) | IC50 [1]: 28.6 µM (active)

CCCCCCCCCCOC(=O)C[n+]1c(COc2ccc(C)cc2)n(C)c2ccccc21
AC50 (CAAX prenyl protease 1): 7.21 µM (active) | AC50 (INS1): 3.4 µM (active) | AC50 [2]: 9.47 µM (active)

CC[C@@H](CO)NC(=O)[C@@H]1C=C2c3cccc4c3c(cn4C)C[C@H]2N(C)C1 [METHYSERGIDE MALEATE]
IC50 (Bcl-2-like protein 1): 22.6 µM (not active) | IC50 [3]: 32.2 µM (inactive) | AC50 (Caspase-6): 11.5 µM (active) and 11.7 µM (active)

CN1CCN(c2nc(C3=C(c4c[nH]c5ccccc45)C(=O)NC3=O)c3ccccc3n2)CC1 [SOTRASTAURIN]
Ki [4]: 3.16 µM (active) | Ki [5]: 0.0631 µM (active) | Ki [6]: > 3.16 µM (inactive) | Ki [7]: > 3.98 µM (inactive) | Ki [8]: > 2 µM (inactive) | Ki [9]: > 1.58 µM (inactive) | Ki [10]: > 3.16 µM (inactive) | Ki [11]: > 1.58 µM (inactive) | Ki [12]: 0.0316 µM (active) | Ki [13]: > 1.58 µM (inactive) | Ki [14]: > 1.58 µM (inactive) | Ki [15]: > 2.51 µM (inactive) | Ki [16]: > 2 µM (inactive) | Ki [17]: > 1.58 µM (inactive) | Ki [18]: > 2.51 µM (inactive) | Ki (Focal adhesion kinase 1): > 6.31 µM (inactive) | Ki [19]: > 7.94 µM (inactive) | Ki [20]: > 10 µM (inactive) | Ki [21]: > 2 µM (inactive) | Ki [22]: 0.316 µM (active) | Ki [23]: > 6.31 µM (inactive) | Ki [24]: 0.00158 µM (active) | Ki [25]: > 6.31 µM (inactive)
